Assay results: publication PMC3524758, “Development and evaluation of a novel radioiodinated vesamicol analog as a sigma receptor imaging agent” (EJNMMI Research, 2012)
Like-named read-outs stand apart in the source and are kept apart here.

Tests used:
sigma-1 receptor = molecular target: T1, sigma-1 receptor (Rattus norvegicus, UniProt Q9R0C9); assay: Sigma-1 receptor competitive binding assay ((+)-[3H]pentazocine, rat cerebral membranes)
T1 construct: from tissue; host or cells: rat brain without cerebellum (male Sprague-Dawley rats)
T1 sequence (Q9R0C9 whole entry): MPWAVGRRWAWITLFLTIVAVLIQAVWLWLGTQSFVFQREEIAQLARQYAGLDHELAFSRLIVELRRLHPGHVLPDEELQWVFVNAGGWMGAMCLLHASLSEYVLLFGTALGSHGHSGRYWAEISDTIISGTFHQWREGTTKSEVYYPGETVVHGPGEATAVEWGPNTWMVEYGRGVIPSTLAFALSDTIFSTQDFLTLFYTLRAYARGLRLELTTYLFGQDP
Protocol: (§1) Animal experimental protocols were approved by the Committee on Animal Experimentation of Kanazawa University. Experiments with animals were conducted in accordance with the Guidelines for the Care and Use of Laboratory Animals of Kanazawa University. The animals were housed with free access to food and water at 23°C with a 12-h alternating light/dark schedule. The rat brain and liver membranes for binding experiments were prepared from rat brains without cerebellum and rat liver in male Sprague–Dawley rats (200 g, Japan SLC, Inc., Hamamatsu, Japan), respectively, using a method described previously.
A sigma-1 receptor binding assay was performed using the following method. […] The incubated samples were quickly diluted with 5 mL of ice-cold Tris–HCl (pH 7.8) buffer followed by rapid filtration through Whatman Grade GF/B glass fiber filters (GE Healthcare UK Ltd., Amersham, UK) presoaked in 0.5% polyethylenimine using a cell harvester (Brandel, Gaithersburg, MD, USA). Filters were washed three times with 5 mL of ice-cold buffer. […] Radioactivity retained on the filters was measured with a liquid scintillation counter (LSC-5100; Aloka, Tokyo, Japan).

sigma-2 receptor = molecular target: T2, sigma-2 receptor (Rattus norvegicus, UniProt Q5U3Y7); assay: Sigma-2 receptor competitive binding assay ([3H]DTG, rat liver membranes, (+)-pentazocine mask)
T2 construct: from tissue; host or cells: rat liver (male Sprague-Dawley rats)
T2 sequence (Q5U3Y7 1-176): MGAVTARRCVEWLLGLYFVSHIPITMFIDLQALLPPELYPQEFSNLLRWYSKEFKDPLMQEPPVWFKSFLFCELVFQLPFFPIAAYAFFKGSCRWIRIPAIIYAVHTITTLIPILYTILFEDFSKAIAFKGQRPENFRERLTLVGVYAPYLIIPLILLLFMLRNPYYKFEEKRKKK
Protocol: as §1
A sigma-2 receptor binding assay was performed using the following method. […] The incubated samples were treated in the same manner as described for the sigma-1 receptor binding assays.

[1] = Biodistribution in DU-145 tumor-bearing mice; format: in vivo; details: i.v., mean (SD)
Protocol: (+)-^131I]pIV was prepared using a method described previously. To produce tumors, approximately 5 × 10^6 of the prepared DU-145 cells was injected subcutaneously into the right dorsum of 4-week-old male BALB/c nude mice (15 to 19 g, Japan SLC, Inc.). Biodistribution experiments were performed at approximately 14- to 21-day post-inoculation, i.e., when tumors reached a palpable size. Groups of four mice were intravenously administered with 100 μL of a mixed solution of (+)-^125I]IV-OH (37 kBq) and (+)-^131I]pIV (37 kBq). At 10-min, 1-, 3-, and 24-h post-injections, the mice were killed. Tissues of interest were removed and weighed, and radioactivity counts were determined with an auto well gamma counter and corrected for background radiation. A window from 16 to 71 keV was used for measuring ^125I and one from 300 to 433 keV for ^131I. The crossover of ^125I activity into the ^131I channel was negligible. Correlation factors to eliminate any crossover of ^131I activity into ^125I were determined by measuring the ^131I standard in both windows.

sigma receptors = assay: Blocking studies with excess sigma ligand in DU-145 tumor-bearing mice; format: in vivo; details: 10 μmol/kg i.v. co-injection, 1-h post-injection
Protocol: At 1-h post-injection, the mice were killed, and biodistribution experiments were conducted as described above.

[2] = rat cerebral membranes, 5-nM (+)-[3H]pentazocine, Ki from IC50, means (SEM) of three or four experiments
[3] = rat liver membranes, 5-nM [3H]DTG, 1-μM (+)-pentazocine mask, Ki from IC50, means (SEM) of three or four experiments

## Oc1ccc(C2CCN(C3CCCC[C@H]3O)CC2)cc1I (single isomer, unassigned; (+)) [(+)-IV-OH, (+)-4-[1-(2-hydroxycyclohexyl)piperidine-4-yl]-2-iodophenol]
sigma-1 receptor
  Ki: 22.8 nM
sigma-1 receptor; in vitro binding assay
  selectivity for sigma-1 subtype over sigma-2: approximately 6.4 fold
sigma-2 receptor
  Ki: 147 nM

## Oc1ccc(C2CCN(C3CCCCC3O)CC2)cc1 (single isomer, unassigned; (+)) [(+)-Ves-OH]
sigma-1 receptor; [2]
  Ki: 179 nM
sigma-2 receptor; [3]
  Ki: 97.2 nM

## OC1CCCCC1N1CCC(c2ccc([131I])cc2)CC1 (single isomer, unassigned; (+)) [(+)-[^131I]pIV, reference compound]
[1]; 10 min post-injection
  Biodistribution of radioactivity, Blood: 0.45 (0.03) percent injected dose per gram tissue
  Biodistribution of radioactivity, Brain: 6.02 (0.74) percent injected dose per gram tissue
  Biodistribution of radioactivity, Heart: 8.66 (0.81) percent injected dose per gram tissue
  Biodistribution of radioactivity, Intestine: 4.31 (0.78) percent injected dose per gram tissue
  Biodistribution of radioactivity, Kidney: 18.47 (1.59) percent injected dose per gram tissue
  Biodistribution of radioactivity, Liver: 9.83 (0.39) percent injected dose per gram tissue
  Biodistribution of radioactivity, Lung: 26.10 (3.39) percent injected dose per gram tissue
  Biodistribution of radioactivity, Muscle: 2.03 (0.53) percent injected dose per gram tissue
  Biodistribution of radioactivity, Pancreas: 16.58 (1.82) percent injected dose per gram tissue
  Biodistribution of radioactivity, Spleen: 8.12 (1.09) percent injected dose per gram tissue
  Biodistribution of radioactivity, Stomach: 1.07 (0.32) percent injected dose
  Biodistribution of radioactivity, Tumor: 7.20 (0.40) percent injected dose per gram tissue
[1]; 1 h post-injection
  Biodistribution of radioactivity, Blood: 0.28 (0.02) percent injected dose per gram tissue
  Biodistribution of radioactivity, Brain: 6.47 (0.73) percent injected dose per gram tissue
  Biodistribution of radioactivity, Heart: 5.55 (0.70) percent injected dose per gram tissue
  Biodistribution of radioactivity, Intestine: 5.14 (0.12) percent injected dose per gram tissue
  Biodistribution of radioactivity, Kidney: 11.72 (1.90) percent injected dose per gram tissue
  Biodistribution of radioactivity, Liver: 13.31 (1.25) percent injected dose per gram tissue
  Biodistribution of radioactivity, Lung: 13.13 (3.28) percent injected dose per gram tissue
  Biodistribution of radioactivity, Muscle: 1.62 (0.22) percent injected dose per gram tissue
  Biodistribution of radioactivity, Pancreas: 21.94 (2.50) percent injected dose per gram tissue
  Biodistribution of radioactivity, Spleen: 8.99 (1.00) percent injected dose per gram tissue
  Biodistribution of radioactivity, Stomach: 0.73 (0.26) percent injected dose
  Biodistribution of radioactivity, Tumor: 5.79 (0.37) percent injected dose per gram tissue
[1]; 3 h post-injection
  Biodistribution of radioactivity, Blood: 0.17 (0.01) percent injected dose per gram tissue
  Biodistribution of radioactivity, Brain: 4.12 (0.30) percent injected dose per gram tissue
  Biodistribution of radioactivity, Heart: 2.11 (0.37) percent injected dose per gram tissue
  Biodistribution of radioactivity, Intestine: 3.20 (0.13) percent injected dose per gram tissue
  Biodistribution of radioactivity, Kidney: 7.37 (0.89) percent injected dose per gram tissue
  Biodistribution of radioactivity, Liver: 13.05 (0.46) percent injected dose per gram tissue
  Biodistribution of radioactivity, Lung: 6.59 (0.56) percent injected dose per gram tissue
  Biodistribution of radioactivity, Muscle: 0.72 (0.29) percent injected dose per gram tissue
  Biodistribution of radioactivity, Pancreas: 27.35 (0.24) percent injected dose per gram tissue
  Biodistribution of radioactivity, Spleen: 4.04 (0.30) percent injected dose per gram tissue
  Biodistribution of radioactivity, Stomach: 0.62 (0.19) percent injected dose
  Biodistribution of radioactivity, Tumor: 6.46 (3.42) percent injected dose per gram tissue
[1]; 24 h post-injection
  Biodistribution of radioactivity, Brain: 2.22 (0.10) percent injected dose per gram tissue
  Biodistribution of radioactivity, Heart: 0.96 (0.07) percent injected dose per gram tissue
  Biodistribution of radioactivity, Intestine: 2.59 (0.24) percent injected dose per gram tissue
  Biodistribution of radioactivity, Kidney: 6.15 (0.30) percent injected dose per gram tissue
  Biodistribution of radioactivity, Liver: 10.28 (0.59) percent injected dose per gram tissue
  Biodistribution of radioactivity, Lung: 3.01 (0.46) percent injected dose per gram tissue
  Biodistribution of radioactivity, Muscle: 0.42 (0.03) percent injected dose per gram tissue
  Biodistribution of radioactivity, Pancreas: 27.36 (0.70) percent injected dose per gram tissue
  Biodistribution of radioactivity, Spleen: 2.52 (0.23) percent injected dose per gram tissue
  Biodistribution of radioactivity, Stomach: 0.49 (0.06) percent injected dose
  Biodistribution of radioactivity, Tumor: 6.81 (2.60) percent injected dose per gram tissue

## Oc1ccc(C2CCN(C3CCCCC3O)CC2)cc1I (single isomer, unassigned; (-)) [(−)-IV-OH, (−)-enantiomer of 4-[1-(2-hydroxycyclohexyl)piperidine-4-yl]-2-iodophenol]
sigma-1 receptor; [2]
  Ki: 45.5 nM
sigma-2 receptor; [3]
  Ki: 166 nM

## COc1ccc(CCN2CCN(CCCc3ccccc3)CC2)cc1OC [SA4503]
Sigma receptors
  effect of co-injected ligand on brain to blood uptake ratio of (+)-[^125I]IV-OH: significant decrease
  effect of co-injected ligand on liver uptake of (+)-[^125I]IV-OH: did not inhibit
  effect of co-injected ligand on pancreas to blood uptake ratio of (+)-[^125I]IV-OH: significant decrease
  effect of co-injected ligand on tumor to blood uptake ratio of (+)-[^125I]IV-OH: significant decrease

## (+)-Vesamicol [reference compound]
sigma-2 receptor; [3]
  Ki: 159 nM
